Results as given in patent US9181219B2, “Compounds of modulating TRPV3 function” (Hydra Biosciences, Inc., priority 2006, dated 2015).
Read-outs that look alike come from different tables or passages of the source.

Tests used:
Format in all cases: cell-based
[1] = target: TRPV3 (Homo sapiens (Human), UniProt Q8NET8); test: Whole-cell patch clamp of TRPV3 mediated inward current; settings: HEK293/TREx TRPV3 cells, approximate values
From the text: Whole-cell patch clamp experiments permit the detection of currents through the TRPV3 channel in the cell line described above. A glass electrode is brought into contact with a single cell and the membrane is then ruptured, permitting control of the voltage of the cell membrane and measurement of currents flowing across the membrane using the amplifier attached to the electrode. A perfusion system permits control of the extracellular solution, including the addition of blockers and activators of the current. The current can be activated by heating this solution to 28° C. or warmer or by addition of 20 μM 2-APB to the solution.
TRPV3 cells were induced 20-48 hours, removed from growth plates, and replated at low density (to attain good single-cell physical separation) on glass coverslips for measurement. In some cases, cells were grown in low density overnight on glass coverslips. Patch clamp recordings were made in the whole-cell mode with a holding potential of −40 mV. Every 5 seconds, a voltage ramp was applied from −120 to +100 mV, 400 ms in duration. Currents elicited were quantified at −80 mV and +80 mV. The internal solution consisted of 140 mM cesium aspartate, 10 mM EGTA, 2.27 mM MgCl2, 1.91 mM CaCl2 and 10 mM HEPES, pH to 7.2 with KOH; with 50 nM calculated free Ca^2+. External solution was Ringer's solution described above. Upon addition of 2-APB or upon heating of the extraceullar solution as described above, TRPV3 current was induced only in TRPV3-expressing cells and not in parental HEK293 TREx cells. […] Removal of the stimulus caused most of the current to go away, and inhibitor addition could still inhibit this current.
The data includes approximate IC50 values for inhibition of TRPV3 mediated inward current as assessed by patch-clamp.

[2] = target: NaV1.2 (Homo sapiens (Human), UniProt Q99250); test: Qpatch selectivity, NaV1.2 inward current; settings: tested at concentrations up to 30 μM, IC50 estimated
Chain of NaV1.2 (Q99250 whole entry): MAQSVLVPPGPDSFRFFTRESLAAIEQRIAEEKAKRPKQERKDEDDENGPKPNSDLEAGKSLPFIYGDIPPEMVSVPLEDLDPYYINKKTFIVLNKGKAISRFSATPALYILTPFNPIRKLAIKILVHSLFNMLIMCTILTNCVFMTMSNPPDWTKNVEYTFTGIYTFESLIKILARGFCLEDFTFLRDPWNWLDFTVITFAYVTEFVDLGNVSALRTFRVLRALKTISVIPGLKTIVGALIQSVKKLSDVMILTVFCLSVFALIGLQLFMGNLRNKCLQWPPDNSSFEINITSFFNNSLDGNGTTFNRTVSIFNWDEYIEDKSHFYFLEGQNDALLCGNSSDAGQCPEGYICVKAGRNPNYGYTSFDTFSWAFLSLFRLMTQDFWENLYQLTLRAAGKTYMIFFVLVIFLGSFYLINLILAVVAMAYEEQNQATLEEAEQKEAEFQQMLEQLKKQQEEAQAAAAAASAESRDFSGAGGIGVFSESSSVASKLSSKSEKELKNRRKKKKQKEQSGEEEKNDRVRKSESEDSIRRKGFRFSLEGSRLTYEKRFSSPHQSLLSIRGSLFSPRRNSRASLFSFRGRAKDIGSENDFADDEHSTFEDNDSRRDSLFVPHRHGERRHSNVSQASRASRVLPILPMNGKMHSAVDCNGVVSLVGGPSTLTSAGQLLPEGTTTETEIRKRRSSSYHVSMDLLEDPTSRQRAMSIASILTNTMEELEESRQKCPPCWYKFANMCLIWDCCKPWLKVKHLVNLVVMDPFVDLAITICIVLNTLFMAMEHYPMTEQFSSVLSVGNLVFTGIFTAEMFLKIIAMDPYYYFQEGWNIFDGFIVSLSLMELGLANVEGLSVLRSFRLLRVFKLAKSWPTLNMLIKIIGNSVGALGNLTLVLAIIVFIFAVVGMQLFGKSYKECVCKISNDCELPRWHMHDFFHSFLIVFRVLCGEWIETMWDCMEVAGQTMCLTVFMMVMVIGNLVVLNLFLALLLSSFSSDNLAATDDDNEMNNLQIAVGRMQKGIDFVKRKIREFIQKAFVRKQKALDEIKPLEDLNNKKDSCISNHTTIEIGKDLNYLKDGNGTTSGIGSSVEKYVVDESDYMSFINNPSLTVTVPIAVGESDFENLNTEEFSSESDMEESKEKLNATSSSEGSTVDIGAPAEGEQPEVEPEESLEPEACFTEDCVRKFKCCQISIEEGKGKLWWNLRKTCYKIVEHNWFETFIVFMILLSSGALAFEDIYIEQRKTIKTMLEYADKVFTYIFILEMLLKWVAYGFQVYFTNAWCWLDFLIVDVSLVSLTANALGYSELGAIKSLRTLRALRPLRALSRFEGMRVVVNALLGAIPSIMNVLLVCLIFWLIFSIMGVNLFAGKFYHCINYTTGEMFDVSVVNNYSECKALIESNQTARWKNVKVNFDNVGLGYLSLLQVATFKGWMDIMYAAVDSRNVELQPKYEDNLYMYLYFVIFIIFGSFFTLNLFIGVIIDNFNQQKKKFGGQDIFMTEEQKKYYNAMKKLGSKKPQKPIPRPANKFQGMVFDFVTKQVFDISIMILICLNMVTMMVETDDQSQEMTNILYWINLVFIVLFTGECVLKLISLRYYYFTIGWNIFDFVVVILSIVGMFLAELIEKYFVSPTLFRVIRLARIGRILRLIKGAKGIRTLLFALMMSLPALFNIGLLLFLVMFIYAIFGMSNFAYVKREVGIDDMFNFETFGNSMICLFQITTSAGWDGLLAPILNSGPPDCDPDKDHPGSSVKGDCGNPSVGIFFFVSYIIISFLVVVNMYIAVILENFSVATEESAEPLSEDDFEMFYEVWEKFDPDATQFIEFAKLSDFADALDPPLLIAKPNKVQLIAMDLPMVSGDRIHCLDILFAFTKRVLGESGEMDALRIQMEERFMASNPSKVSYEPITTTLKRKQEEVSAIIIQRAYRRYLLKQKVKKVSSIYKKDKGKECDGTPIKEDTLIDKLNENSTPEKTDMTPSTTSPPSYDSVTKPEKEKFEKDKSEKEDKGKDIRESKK
From the text: (§1) To determine whether compounds were selective for TRPV3 inhibition over inhibition of other ion channel types, the human ERG (hERG), NaV1.2, and TRPV1 (hTRPV1) channels and the rat TRPV6 (rTRPV6) channel were also stably transfected and expressed or induced to express in mammalian cell lines. The methods for measuring currents from these channels are well-established and have been described in numerous publications (See, Weerapura et al., 2002, J Physiology 540: 15-27; Rush et al., 2005, J Physiology 564: 808-815; Caterina et al., 1997, Nature 389: 816-824; Hoenderhop et al., 2001, J Physiology 537: 747-761; Clapham et al., 2003, Pharmacol Rev 55: 591-596). Compounds of interest were tested against these channels at concentrations up to 30 μM, and the resulting data were used to estimate IC50.

[3] = target: hERG (Homo sapiens (Human), UniProt Q12809); test: Patch clamp selectivity, hERG current; settings: tested at concentrations up to 30 μM, IC50 estimated
Chain of hERG (Q12809 whole entry): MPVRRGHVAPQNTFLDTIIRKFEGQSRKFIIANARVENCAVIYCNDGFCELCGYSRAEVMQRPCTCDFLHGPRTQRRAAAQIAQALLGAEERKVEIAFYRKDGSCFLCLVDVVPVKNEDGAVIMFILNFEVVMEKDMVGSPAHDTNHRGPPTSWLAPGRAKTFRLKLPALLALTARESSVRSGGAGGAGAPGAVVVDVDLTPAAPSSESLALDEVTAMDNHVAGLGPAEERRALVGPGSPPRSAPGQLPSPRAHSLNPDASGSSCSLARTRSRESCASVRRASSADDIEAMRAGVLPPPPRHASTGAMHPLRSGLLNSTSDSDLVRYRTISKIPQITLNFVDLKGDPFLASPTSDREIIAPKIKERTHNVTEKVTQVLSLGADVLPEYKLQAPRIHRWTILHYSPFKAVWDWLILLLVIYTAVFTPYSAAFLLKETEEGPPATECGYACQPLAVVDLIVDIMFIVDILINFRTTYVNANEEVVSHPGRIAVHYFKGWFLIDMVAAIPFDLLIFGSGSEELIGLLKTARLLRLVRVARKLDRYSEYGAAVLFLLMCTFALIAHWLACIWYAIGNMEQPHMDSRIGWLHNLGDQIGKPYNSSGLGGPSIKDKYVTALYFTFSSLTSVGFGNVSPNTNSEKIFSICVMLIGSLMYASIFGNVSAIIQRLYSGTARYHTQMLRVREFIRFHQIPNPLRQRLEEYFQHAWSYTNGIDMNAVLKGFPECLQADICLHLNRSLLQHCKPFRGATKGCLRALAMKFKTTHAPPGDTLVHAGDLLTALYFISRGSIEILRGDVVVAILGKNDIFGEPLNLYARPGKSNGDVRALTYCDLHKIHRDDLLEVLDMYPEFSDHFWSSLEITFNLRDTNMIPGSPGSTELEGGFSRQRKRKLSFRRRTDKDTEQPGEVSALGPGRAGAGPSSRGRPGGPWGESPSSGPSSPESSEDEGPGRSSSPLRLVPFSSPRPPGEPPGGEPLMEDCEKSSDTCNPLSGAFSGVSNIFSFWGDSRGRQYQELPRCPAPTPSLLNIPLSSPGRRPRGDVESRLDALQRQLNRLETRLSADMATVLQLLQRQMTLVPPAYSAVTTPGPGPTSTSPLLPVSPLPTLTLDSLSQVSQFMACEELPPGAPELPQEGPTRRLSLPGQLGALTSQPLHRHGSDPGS
From the text: as §1

[4] = target: TRPV1 (hTRPV1) (Homo sapiens (Human), UniProt Q8NER1); test: Patch clamp selectivity, TRPV1 inward current; settings: tested at concentrations up to 30 μM, IC50 estimated
Chain of TRPV1 (hTRPV1) (Q8NER1 whole entry): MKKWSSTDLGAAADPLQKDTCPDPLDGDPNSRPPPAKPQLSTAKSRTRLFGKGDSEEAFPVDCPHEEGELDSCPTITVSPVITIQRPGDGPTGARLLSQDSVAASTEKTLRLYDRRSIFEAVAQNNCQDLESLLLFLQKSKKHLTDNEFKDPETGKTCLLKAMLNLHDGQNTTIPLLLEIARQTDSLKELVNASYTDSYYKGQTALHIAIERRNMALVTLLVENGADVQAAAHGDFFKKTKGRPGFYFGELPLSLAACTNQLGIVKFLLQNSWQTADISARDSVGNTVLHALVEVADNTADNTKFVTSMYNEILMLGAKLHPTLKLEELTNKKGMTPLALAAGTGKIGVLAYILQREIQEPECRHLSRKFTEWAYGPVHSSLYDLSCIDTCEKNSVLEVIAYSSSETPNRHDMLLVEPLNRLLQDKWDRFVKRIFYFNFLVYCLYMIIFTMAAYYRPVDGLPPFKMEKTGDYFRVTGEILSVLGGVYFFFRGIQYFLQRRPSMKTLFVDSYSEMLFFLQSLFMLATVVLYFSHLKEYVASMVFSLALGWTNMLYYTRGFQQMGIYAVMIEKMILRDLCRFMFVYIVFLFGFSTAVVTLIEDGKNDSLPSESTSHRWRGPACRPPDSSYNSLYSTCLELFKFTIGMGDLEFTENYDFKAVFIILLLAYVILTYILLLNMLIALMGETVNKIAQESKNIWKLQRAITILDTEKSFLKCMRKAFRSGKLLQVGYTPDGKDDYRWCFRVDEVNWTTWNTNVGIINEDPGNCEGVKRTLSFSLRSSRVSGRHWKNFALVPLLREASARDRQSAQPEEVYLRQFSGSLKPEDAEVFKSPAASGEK
From the text: as §1

[5] = Phase 1 inward current, read-out: TRPV3 Phase 1 IC50 inward
[6] = Phase 2 inward current, read-out: TRPV3 Phase 2 IC50 inward

Chain of TRPV3 (Q8NET8 whole entry, species assumed, the tested form may be a part): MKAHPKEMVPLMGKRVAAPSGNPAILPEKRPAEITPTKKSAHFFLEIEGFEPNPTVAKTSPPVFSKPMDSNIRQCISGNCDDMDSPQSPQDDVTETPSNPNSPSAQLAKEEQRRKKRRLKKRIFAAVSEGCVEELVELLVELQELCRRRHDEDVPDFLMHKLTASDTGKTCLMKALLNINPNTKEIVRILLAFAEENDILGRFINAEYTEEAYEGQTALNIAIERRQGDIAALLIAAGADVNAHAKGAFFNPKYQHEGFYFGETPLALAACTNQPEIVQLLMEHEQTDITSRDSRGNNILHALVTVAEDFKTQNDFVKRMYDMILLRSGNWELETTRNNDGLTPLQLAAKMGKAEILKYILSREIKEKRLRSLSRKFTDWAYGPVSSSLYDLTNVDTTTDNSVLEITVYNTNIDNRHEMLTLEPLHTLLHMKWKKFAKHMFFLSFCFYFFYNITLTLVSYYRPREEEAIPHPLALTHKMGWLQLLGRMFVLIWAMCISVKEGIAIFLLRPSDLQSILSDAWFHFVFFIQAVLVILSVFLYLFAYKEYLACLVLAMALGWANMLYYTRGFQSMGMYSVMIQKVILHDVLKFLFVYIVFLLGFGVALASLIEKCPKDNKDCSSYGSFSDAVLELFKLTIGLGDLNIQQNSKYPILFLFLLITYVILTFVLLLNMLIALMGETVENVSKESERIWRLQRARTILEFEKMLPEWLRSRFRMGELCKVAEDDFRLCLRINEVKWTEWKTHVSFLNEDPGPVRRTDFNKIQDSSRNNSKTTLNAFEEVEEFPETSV

Structure (SMILES): Cc1cccc2c1N(C(=O)CSc1ncc(C(F)(F)F)cc1Cl)CCC2 [Compound 10, 2-(3-chloro-5-trifluoromethyl-pyridine-2-ylsulfanyl)-1-(8-methyl-3,4-dihydro-2H-quinolin-1-yl)-ethanone]
- IC50 [1, 5]: ≤ 0.2 µM
- IC50 [1, 6]: ≤ 0.5 µM

Structure (SMILES): Cc1ccnc(SCC(=O)N2CCCc3cccc(C)c32)c1C
- IC50 [1, 5]: ≤ 5 µM
- IC50 [1, 6]: ≤ 1 µM

Structure (SMILES): Cc1ccc(SCC(=O)N2CCCc3cccc(C)c32)nc1 [Compound 24, 1-(8-Methyl-3,4-dihydro-2H-quinolin-1-yl)-2-(5-methyl-pyridin-2-ylsulfanyl)-ethanone]
- IC50 [1, 5]: ≤ 5 µM
- IC50 [1, 6]: ≤ 10 µM

Structure (SMILES): Cc1cccc2c1N(C(=O)CSc1ncccc1C#N)CCC2
- IC50 [1, 5]: ≤ 1 µM
- IC50 [1, 6]: ≤ 0.5 µM

Structure (SMILES): CCc1cc(C(F)(F)F)cnc1SCC(=O)N1CCCc2cccc(C)c21
- IC50 [1, 5]: ≤ 5 µM
- IC50 [1, 6]: ≤ 5 µM

Structure (SMILES): Cc1cccc2c1N(C(=O)CSc1cc(C#N)ccn1)CCC2
- IC50 [1, 5]: ≤ 10 µM
- IC50 [1, 6]: ≤ 10 µM

Structure (SMILES): O=C(CSc1ccc(Cl)cn1)N1CCCc2ccccc21 [Compound 21, 2-(5-chloro-pyridine-2-ylthio)-1-(3,4-dihydroquinolin-1-(2H)-yl)-ethanone]
- IC50 [1, 5]: ≤ 5 µM
- IC50 [1, 6]: ≤ 5 µM

Structure (SMILES): Cc1cccc2c1N(C(=O)CSc1ccc(Br)cn1)CCC2
- IC50 [1, 5]: ≤ 0.5 µM
- IC50 [1, 6]: ≤ 0.5 µM

Structure (SMILES): Cc1cccc2c1N(C(=O)CSc1ncc(Cl)cc1Cl)CCC2
- IC50 [1, 5]: ≤ 0.2 µM
- IC50 [1, 6]: ≤ 0.2 µM

Structure (SMILES): Cc1cccc2c1N(C(=O)CSc1ncccc1Cl)CCC2 [Compound 20, 2-(3-chloro-pyridin-2-ylsulfanyl)-1-(8-methyl-3,4-dihydro-2H-quinolin-1-yl)-ethanone]
- IC50 [2]: ≥ 30 µM
- IC50 [1, 5]: ≤ 0.2 µM
- IC50 [1, 6]: ≤ 1 µM
- IC50 [3]: ≥ 10 µM

Structure (SMILES): Cc1cccc2c1N(C(=O)CSc1ccccn1)CCC2 [Compound 12, 1-(8-methyl-3,4-dihydro-2H-quinolin-1-yl)-2-(pyridine-2-ylsulfanyl)-ethanone]
- IC50 [1, 5]: ≤ 5 µM
- IC50 [1, 6]: ≤ 10 µM

Structure (SMILES): Cc1cccc2c1N(C(=O)CSc1ccc(Cl)cn1)CCC2 [Compound 16, 2-(5-Chloro-pyridin-2-ylsulfanyl)-1-(8-methyl-3,4-dihydro-2H-quinolin-1-yl)-ethanone]
- IC50 [1, 5]: ≤ 0.5 µM
- IC50 [1, 6]: ≤ 0.5 µM
- IC50 [3]: ≥ 5 µM

Structure (SMILES): Cc1cccc2c1N(C(=O)CSc1ccc(C#N)cn1)CCC2
- IC50 [1, 5]: ≤ 10 µM
- IC50 [1, 6]: ≤ 5 µM

Structure (SMILES): Cc1cccc2c1N(C(=O)CSc1ncc(C(F)(F)F)cc1F)CCC2
- IC50 [1, 5]: ≤ 0.2 µM
- IC50 [1, 6]: ≤ 0.2 µM

Structure (SMILES): Cc1cnc(SCC(=O)N2CCCc3cccc(C)c32)cc1C
- IC50 [1, 5]: ≤ 0.2 µM
- IC50 [1, 6]: ≤ 0.2 µM

Structure (SMILES): COc1cccc2c1N(C(=O)CSc1ncccc1Cl)CCC2
- IC50 [1, 5]: ≤ 0.5 µM
- IC50 [1, 6]: ≤ 0.5 µM

Structure (SMILES): Cc1cccc2c1N(C(=O)CSc1ccc(C(F)(F)F)cn1)CCC2 [Compound 6, 2-(5-trifluoromethyl-pyridine-2-ylsulfanyl)-1-(8-methyl-3,4-dihydro-2H-quinolin-1-yl)-ethanone]
- IC50 [2]: ≥ 30 µM
- IC50 [1, 5]: ≤ 0.5 µM
- IC50 [1, 6]: ≤ 0.2 µM
- IC50 [3]: ≥ 30 µM
- IC50 [4]: ≥ 20 µM

Structure (SMILES): Cc1cccc2c1N(C(=O)CSc1ncccc1C(F)(F)F)CCC2 [Compound 8, 1-(8-methyl-3,4-dihydro-2H-quinolin-1-yl)-2-(3-trifluoromethyl-pyridin-2-ylsulfanyl)-ethanone]
- IC50 [1, 5]: ≤ 1 µM
- IC50 [1, 6]: ≤ 5 µM

Structure (SMILES): O=C(CSc1ccc(C(F)(F)F)cn1)N1CCCc2ccccc21
- IC50 [2]: ≥ 30 µM
- IC50 [1, 5]: ≤ 5 µM
- IC50 [1, 6]: ≤ 1 µM

Structure (SMILES): COC(=O)c1cnc(SCC(=O)N2CCCc3cccc(C)c32)c(Cl)c1
- IC50 [1, 5]: ≤ 5 µM
- IC50 [1, 6]: ≤ 5 µM
